Results: ChEMBL document CHEMBL3044800, “Synthesis, characterization and anticancer activity of 3-aza-analogues of DP-7” (Med Chem Res, 2012)
Activity calls are given as the source filed them. The rule behind the calls is not given here.

Each compound was assayed against T1, ATP-dependent translocase ABCB1 (Homo sapiens, UniProt P08183) (assay: Inhibition of MDR1 (unknown origin)-mediated rhodamine 123 uptake expressed in mouse L5178Y cells assessed as fluorescence activity ratio at 21.99 uM by flow cytometry relative to untreated control).
T1 sequence (P08183 whole entry): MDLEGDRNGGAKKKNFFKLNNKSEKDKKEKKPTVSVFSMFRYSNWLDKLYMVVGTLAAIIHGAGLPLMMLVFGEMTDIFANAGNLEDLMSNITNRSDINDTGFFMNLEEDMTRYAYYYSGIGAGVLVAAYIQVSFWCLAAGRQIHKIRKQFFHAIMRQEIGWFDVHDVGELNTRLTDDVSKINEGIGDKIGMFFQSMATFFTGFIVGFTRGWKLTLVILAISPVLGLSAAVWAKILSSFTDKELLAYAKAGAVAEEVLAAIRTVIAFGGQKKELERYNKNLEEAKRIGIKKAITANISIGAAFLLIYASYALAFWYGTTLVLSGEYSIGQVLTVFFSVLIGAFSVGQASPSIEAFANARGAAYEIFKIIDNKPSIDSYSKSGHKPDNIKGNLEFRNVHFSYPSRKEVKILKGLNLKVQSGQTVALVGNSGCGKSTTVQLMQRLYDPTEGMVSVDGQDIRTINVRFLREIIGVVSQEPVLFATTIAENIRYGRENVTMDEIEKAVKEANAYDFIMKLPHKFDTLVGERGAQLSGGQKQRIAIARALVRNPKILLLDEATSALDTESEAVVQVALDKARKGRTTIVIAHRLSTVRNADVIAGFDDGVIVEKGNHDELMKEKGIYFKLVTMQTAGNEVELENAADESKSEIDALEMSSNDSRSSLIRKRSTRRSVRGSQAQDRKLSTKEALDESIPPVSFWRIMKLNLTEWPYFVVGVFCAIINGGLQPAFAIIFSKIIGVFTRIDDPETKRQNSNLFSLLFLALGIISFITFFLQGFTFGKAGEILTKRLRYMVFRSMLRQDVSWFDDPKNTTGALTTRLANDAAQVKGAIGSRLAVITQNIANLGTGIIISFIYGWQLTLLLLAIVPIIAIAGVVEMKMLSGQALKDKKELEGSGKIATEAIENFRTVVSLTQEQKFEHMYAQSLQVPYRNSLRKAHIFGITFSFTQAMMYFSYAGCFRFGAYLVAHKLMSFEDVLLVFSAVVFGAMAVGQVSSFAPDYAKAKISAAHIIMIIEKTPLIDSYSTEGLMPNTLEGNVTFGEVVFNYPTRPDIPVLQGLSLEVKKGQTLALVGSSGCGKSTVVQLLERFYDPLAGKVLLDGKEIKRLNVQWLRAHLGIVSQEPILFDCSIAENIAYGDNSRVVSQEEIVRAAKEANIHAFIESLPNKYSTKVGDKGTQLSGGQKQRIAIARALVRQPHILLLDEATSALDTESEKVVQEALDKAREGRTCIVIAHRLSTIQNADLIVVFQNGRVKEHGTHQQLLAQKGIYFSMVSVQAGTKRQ
Assay type: cell-based

Compound	RLU
COc1ccc(CCN(C)CCCC(C#N)(c2ccc(OC)c(OC)c2)C(C)C)cc1OC (stereo unspecified) [VERAPAMIL]	4.26

These compounds were tested against T1, ATP-dependent translocase ABCB1 (assay: Inhibition of MDR1 (unknown origin)-mediated rhodamine 123 uptake expressed in mouse L5178Y cells assessed as fluorescence activity ratio at 4 uM by flow cytometry relative to untreated control).
Assay type: cell-based

Compound	RLU
CC1=C(C(=O)c2ccccc2)C(c2ccccc2O)NC(=S)N1 (stereo unspecified)	1.03
COc1cc(C2NC(=O)NC(C)=C2C(=O)c2ccccc2)cc(OC)c1OC (stereo unspecified)	0.96
CC1=C(C(=O)c2ccccc2)C(c2cccc3ccccc23)NC(=O)N1 (stereo unspecified)	29.87
COc1cc(OC)cc(C2NC(=O)NC(C)=C2C(=O)c2ccccc2)c1 (stereo unspecified)	1.15
CC1=C(C(=O)c2ccccc2)C(c2c3ccccc3cc3ccccc23)NC(=O)N1 (stereo unspecified)	4.57
CC1=C(C(=O)c2ccccc2)C(c2cccc([N+](=O)[O-])c2)NC(=O)N1 (stereo unspecified)	1.39
CC1=C(C(=O)c2ccccc2)C(c2cc(Br)c(O)c(Br)c2)NC(=O)N1 (stereo unspecified)	0.82
CC1=C(C(=O)c2ccccc2)C(/C=C/c2ccccc2)NC(=S)N1 (stereo unspecified)	1.28
COc1ccc(OC)c(C2NC(=O)NC(C)=C2C(=O)c2ccccc2)c1 (stereo unspecified)	36.85
CC1=C(C(=O)c2ccccc2)C(c2ccccc2)NC(=O)N1 (stereo unspecified)	1.09
CC1=C(C(=O)c2ccccc2)C(c2cccc(Cl)c2)NC(=S)N1 (stereo unspecified)	1.21
CC1=C(C(=O)c2ccccc2)C(c2cccc(O)c2)NC(=O)N1 (stereo unspecified)	0.97
CC1=C(C(=O)c2ccccc2)C(c2cccc(Oc3ccccc3)c2)NC(=S)N1 (stereo unspecified)	3.68
CC1=C(C(=O)c2ccccc2)C(c2ccc(Cl)cc2)NC(=S)N1 (stereo unspecified)	1.03
CC1=C(C(=O)c2ccccc2)C(/C=C/c2ccccc2)NC(=O)N1 (stereo unspecified)	0.99
CC1=C(C(=O)c2ccccc2)C(c2ccccc2Cl)NC(=O)N1 (stereo unspecified)	0.98
CC1=C(C(=O)c2ccccc2)C(c2ccccc2[N+](=O)[O-])NC(=O)N1 (stereo unspecified)	0.94
COc1ccc(C2NC(S)=NC(C)=C2C(=O)c2ccccc2)cc1OC (stereo unspecified)	1.28
CC1=C(C(=O)c2ccccc2)C(c2ccc(C#N)cc2)NC(=O)N1 (stereo unspecified)	2.11
CC1=C(C(=O)c2ccccc2)C(c2cccc(Br)c2)NC(=S)N1 (stereo unspecified)	1.11
CC1=C(C(=O)c2ccccc2)C(c2ccc(Cl)cc2)NC(=O)N1 (stereo unspecified)	0.96
COc1cc(C2NC(=S)NC(C)=C2C(=O)c2ccccc2)cc(OC)c1OC (stereo unspecified)	0.93
CC1=C(C(=O)c2ccccc2)C(c2cccc(Oc3ccccc3)c2)NC(=O)N1 (stereo unspecified)	1.23
CC1=C(C(=O)c2ccccc2)C(c2c[nH]c3ccccc23)NC(=O)N1 (stereo unspecified)	78.56
CC1=C(C(=O)c2ccccc2)C(c2ccccc2)NC(=S)N1 (stereo unspecified)	0.97
CC1=C(C(=O)c2ccccc2)C(c2ccccc2Cl)NC(=S)N1 (stereo unspecified)	1.17
CC1=C(C(=O)c2ccccc2)C(c2ccco2)NC(=O)N1 (stereo unspecified)	1.26
CC1=C(C(=O)c2ccccc2)C(c2cccc(Cl)c2)NC(=O)N1 (stereo unspecified)	0.89
CC1=C(C(=O)c2ccccc2)C(c2cccc(Br)c2)NC(=O)N1 (stereo unspecified)	1.15
CC1=C(C(=O)c2ccccc2)C(c2ccccc2[N+](=O)[O-])NC(=S)N1 (stereo unspecified)	0.88

Each compound was assayed on L5178Y (assay: Antiproliferative activity against Mus musculus (mouse) L5178Y cells transfected with mdr1 (unknown origin) after 72 hr by MTT assay).
Assay type: functional, cell-based

Compound	Activity
CC1=C(C(=O)c2ccccc2)C(c2cccc3ccccc23)NC(=O)N1 (stereo unspecified)	Active
COc1ccc(OC)c(C2NC(=O)NC(C)=C2C(=O)c2ccccc2)c1 (stereo unspecified)	Active
CC1=C(C(=O)c2ccccc2)C(c2cccc(Oc3ccccc3)c2)NC(=S)N1 (stereo unspecified)	Active
CC1=C(C(=O)c2ccccc2)C(c2c[nH]c3ccccc23)NC(=O)N1 (stereo unspecified)	Active

These compounds were tested against Voltage-gated L-type calcium channel (Rattus norvegicus, UniProt P22002+Q02485+P27732) (assay: Inhibition of L-type calcium channel in Rattus norvegicus (rat) heart artery myocytes).
Assay type: tissue-based

Compound	IC50 [nM]
CC1=C(C(=O)c2ccccc2)C(c2cccc(Oc3ccccc3)c2)C(C(=O)c2ccccc2)=C(C)N1	1120
